What was measured:
[1] = biological target: GABA-A receptor; anion channel; experiment: In vitro binding affinity for neuronal GABA-A receptor; type: protein-complex assay
Rattus norvegicus [2] = experiment: In vivo minimum effective dose of compound to block the conditioned avoidance behavior in rats after peroral administration; type: functional
[3] = biological target: Serotonin 2 (5-HT2) receptor (Homo sapiens, UniProt P41595+P28223+P28335); experiment: In vitro binding affinity of compound against neuronal 5-hydroxytryptamine 2 receptor; type: protein assay
Mus musculus [4] = experiment: In vivo minimum effective dose of compound to block the apomorphine-induced climbing behavior in mice after subcutaneous administration; type: functional
Mus musculus [5] = experiment: In vivo minimum effective dose of compound to block the apomorphine-induced climbing behavior in mice after intravenous administration; type: functional
[6] = biological target: T1, Adrenergic receptor alpha-2 (Homo sapiens, UniProt P08913+P18825+P18089); experiment: In vitro binding affinity of compound against neuronal alpha-2 adrenergic receptor; type: protein assay
T1 sequence (P08913 whole entry): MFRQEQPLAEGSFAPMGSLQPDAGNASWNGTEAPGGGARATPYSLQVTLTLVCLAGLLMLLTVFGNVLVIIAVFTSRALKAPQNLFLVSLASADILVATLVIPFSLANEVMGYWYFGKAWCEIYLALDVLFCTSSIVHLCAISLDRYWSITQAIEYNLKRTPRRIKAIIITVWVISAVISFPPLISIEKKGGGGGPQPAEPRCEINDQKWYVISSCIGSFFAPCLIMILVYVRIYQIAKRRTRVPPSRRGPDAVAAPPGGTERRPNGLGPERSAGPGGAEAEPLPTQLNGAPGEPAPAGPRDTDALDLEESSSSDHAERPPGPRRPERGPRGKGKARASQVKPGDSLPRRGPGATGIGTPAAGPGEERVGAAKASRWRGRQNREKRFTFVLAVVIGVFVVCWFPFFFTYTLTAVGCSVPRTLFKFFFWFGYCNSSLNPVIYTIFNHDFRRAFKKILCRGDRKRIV
T1 sequence (P18825 whole entry): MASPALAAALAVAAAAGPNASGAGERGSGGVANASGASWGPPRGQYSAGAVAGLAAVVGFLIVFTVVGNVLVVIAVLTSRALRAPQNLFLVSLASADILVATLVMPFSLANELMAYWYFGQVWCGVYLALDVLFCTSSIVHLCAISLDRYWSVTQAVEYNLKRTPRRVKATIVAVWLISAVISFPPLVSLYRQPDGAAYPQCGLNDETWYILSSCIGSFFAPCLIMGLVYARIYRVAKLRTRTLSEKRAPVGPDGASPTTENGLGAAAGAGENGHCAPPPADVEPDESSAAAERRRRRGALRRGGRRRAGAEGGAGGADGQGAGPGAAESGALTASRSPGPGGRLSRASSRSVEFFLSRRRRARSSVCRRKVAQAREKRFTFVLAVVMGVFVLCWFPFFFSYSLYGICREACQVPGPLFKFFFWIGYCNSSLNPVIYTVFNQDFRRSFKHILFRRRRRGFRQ
T1 sequence (P18089 whole entry): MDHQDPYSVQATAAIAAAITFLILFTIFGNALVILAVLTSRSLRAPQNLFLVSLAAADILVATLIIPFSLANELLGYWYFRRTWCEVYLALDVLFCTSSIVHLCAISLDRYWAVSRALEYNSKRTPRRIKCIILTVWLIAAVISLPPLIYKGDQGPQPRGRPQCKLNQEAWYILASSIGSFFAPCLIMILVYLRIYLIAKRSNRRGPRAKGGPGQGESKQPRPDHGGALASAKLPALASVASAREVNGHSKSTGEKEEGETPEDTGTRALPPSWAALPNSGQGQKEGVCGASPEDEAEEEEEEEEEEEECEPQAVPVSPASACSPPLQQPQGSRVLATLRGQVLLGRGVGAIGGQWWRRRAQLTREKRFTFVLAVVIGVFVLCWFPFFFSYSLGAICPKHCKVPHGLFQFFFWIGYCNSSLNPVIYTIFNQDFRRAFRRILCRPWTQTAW

[7] = biological target: Muscarinic acetylcholine receptor; experiment: In vitro binding affinity of compound against muscarinic neuronal receptor; type: protein assay
Rattus norvegicus [8] = experiment: In vivo minimum effective dose of compound to block the conditioned avoidance behavior in rats after intravenous administration; type: functional
D(1A) dopamine receptor = D(1A) dopamine receptor (Homo sapiens, UniProt P21728); experiment: In vitro binding affinity of compound against dopamine neuronal Dopamine receptor D1
Histamine H1 receptor = Histamine H1 receptor (Homo sapiens, UniProt P35367); experiment: In vitro binding affinity of compound against histamine H1 neuronal receptor
[9] = biological target: T2, Adrenergic receptor alpha-1 (Homo sapiens, UniProt P35348+P25100+P35368); experiment: In vitro binding affinity of compound against Alpha-1 adrenergic receptor; type: protein assay
T2 sequence (P35348 whole entry): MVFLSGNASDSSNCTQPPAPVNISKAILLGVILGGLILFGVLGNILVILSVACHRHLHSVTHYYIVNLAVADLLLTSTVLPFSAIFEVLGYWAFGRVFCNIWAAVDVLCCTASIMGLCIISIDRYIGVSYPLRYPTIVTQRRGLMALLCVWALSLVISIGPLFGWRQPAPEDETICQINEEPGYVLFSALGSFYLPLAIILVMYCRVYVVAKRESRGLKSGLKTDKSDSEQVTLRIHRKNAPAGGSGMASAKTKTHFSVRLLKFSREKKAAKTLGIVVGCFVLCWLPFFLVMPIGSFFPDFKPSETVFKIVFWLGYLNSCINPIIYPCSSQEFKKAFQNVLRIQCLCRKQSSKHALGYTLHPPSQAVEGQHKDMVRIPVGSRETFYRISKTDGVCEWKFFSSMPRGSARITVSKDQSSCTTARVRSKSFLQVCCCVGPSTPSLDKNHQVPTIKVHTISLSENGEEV
T2 sequence (P25100 whole entry): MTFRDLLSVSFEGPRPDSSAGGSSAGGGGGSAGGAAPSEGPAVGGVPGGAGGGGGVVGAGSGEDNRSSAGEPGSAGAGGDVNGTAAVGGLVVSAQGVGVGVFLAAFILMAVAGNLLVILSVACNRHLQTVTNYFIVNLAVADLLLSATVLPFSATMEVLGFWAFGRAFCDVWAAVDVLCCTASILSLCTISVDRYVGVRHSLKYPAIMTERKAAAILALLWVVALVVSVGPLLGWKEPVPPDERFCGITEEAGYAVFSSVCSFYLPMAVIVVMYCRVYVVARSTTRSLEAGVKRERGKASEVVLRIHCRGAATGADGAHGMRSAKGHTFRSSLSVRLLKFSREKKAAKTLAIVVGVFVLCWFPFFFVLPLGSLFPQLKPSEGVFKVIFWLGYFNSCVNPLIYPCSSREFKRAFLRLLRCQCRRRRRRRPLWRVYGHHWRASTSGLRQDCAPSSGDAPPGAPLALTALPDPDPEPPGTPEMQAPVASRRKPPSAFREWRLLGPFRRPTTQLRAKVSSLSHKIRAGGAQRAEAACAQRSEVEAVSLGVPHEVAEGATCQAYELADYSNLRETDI
T2 sequence (P35368 whole entry): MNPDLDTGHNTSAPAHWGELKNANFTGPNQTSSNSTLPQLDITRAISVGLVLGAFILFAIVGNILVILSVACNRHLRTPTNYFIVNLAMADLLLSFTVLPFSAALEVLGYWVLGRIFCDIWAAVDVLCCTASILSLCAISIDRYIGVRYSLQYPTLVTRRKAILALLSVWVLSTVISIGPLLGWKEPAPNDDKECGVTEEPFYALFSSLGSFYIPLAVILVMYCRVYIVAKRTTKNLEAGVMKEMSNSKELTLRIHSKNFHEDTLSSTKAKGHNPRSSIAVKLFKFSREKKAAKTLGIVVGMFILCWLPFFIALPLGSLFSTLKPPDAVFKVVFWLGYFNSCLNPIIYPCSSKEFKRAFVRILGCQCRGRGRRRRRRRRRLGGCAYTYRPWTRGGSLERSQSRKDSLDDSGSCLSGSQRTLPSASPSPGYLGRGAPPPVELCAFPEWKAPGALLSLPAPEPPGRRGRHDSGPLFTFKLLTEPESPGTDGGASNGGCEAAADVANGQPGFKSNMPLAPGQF

Adrenergic receptor beta = Adrenergic receptor beta (Homo sapiens, UniProt P08588+P07550+P13945); experiment: In vitro binding affinity of compound against neuronal Beta adrenergic receptor; type: protein assay
D(2) dopamine receptor = D(2) dopamine receptor (Homo sapiens, UniProt P14416); experiment: In vitro binding affinity of compound against neuronal Dopamine receptor D2
[10] = biological target: GABA-A receptor; anion channel; experiment: In vitro binding affinity for neuronal GABA-A benzodiazepine receptor; type: protein-complex assay
Mus musculus [11] = experiment: In vivo minimum effective dose of compound to block the apomorphine-induced climbing behavior in mice after peroral administration; type: functional

Histamine H1 receptor, sequence (P35367 whole entry): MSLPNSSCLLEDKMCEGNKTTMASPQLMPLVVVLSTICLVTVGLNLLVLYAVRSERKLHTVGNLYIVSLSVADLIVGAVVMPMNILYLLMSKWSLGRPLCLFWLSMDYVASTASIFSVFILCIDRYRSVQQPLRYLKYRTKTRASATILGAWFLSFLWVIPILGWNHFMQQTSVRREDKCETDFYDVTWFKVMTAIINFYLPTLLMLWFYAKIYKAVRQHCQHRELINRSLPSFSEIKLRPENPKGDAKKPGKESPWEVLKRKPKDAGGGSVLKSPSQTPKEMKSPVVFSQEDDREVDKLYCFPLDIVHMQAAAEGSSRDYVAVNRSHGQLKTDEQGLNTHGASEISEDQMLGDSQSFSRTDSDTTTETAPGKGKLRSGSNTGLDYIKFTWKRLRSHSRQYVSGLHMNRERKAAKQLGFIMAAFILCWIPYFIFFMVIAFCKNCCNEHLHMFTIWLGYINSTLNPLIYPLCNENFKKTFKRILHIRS
D(1A) dopamine receptor, sequence (P21728 whole entry): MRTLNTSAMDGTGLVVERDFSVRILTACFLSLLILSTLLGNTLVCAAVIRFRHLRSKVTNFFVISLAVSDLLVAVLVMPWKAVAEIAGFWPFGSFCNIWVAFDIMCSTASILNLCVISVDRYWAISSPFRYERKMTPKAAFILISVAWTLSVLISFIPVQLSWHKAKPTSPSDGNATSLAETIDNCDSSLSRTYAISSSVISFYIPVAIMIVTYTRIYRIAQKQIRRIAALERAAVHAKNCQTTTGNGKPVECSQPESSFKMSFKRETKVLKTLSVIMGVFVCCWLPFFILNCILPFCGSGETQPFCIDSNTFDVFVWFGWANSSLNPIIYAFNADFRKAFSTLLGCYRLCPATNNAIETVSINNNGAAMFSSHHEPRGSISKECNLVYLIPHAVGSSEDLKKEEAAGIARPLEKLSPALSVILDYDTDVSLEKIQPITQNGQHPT
D(2) dopamine receptor, sequence (P14416 whole entry): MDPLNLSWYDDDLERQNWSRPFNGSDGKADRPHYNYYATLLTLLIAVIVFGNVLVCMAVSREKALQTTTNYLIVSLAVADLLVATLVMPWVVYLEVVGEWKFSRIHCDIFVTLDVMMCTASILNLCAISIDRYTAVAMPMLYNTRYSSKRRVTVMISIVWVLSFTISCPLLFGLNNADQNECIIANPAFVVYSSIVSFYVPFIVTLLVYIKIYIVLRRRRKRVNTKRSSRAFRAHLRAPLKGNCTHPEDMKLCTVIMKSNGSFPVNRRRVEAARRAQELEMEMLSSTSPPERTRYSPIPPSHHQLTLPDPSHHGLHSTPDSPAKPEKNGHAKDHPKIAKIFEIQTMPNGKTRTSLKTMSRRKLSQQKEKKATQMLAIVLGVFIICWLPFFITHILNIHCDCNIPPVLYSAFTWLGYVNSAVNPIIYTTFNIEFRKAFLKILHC

Ki [1] [nM]	Ki [3] [nM]	Ki [6] [nM]	Ki [7] [nM]	Ki (D(1A) dopamine receptor) [nM]	Ki (Histamine H1 receptor) [nM]	Ki [9] [nM]	Ki (Adrenergic receptor beta) [nM]	Ki (D(2) dopamine receptor) [nM]	Ki [10] [nM]	SMILES	EDmin (Rattus norvegicus [2]) [mg/kg]	EDmin (Mus musculus [4]) [mg/kg]	EDmin (Mus musculus [5]) [mg/kg]	EDmin (Rattus norvegicus [8]) [mg/kg]	EDmin (Mus musculus [11]) [mg/kg]
> 10000	23	1000	333	203	22	80	> 10000	9	> 10000	Cc1cc2c(s1)Nc1ccccc1N=C2N1CCNCC1 [DESMETHYLOLANZAPINE]	>25	50	>10	>4	
> 10000	18	783	501	66	6	12	> 10000	22	> 1000	CN1CCN(C2=Nc3ccccc3Nc3sc(CO)cc32)CC1					20
> 10000	112	> 10000	662	395	87	266	> 10000	119	> 10000	Cc1cc2c(s1)Nc1ccccc1N=C2N1CC[N+](C)([O-])CC1	>25	12.5	>10	>4	

SMILES	Ki [1] [nM]	Ki [3] [nM]	Ki [6] [nM]	Ki [7] [nM]	Ki (D(1A) dopamine receptor) [nM]	Ki (Histamine H1 receptor) [nM]	Ki [9] [nM]	Ki (Adrenergic receptor beta) [nM]	Ki (D(2) dopamine receptor) [nM]	Ki [10] [nM]	EDmin (Rattus norvegicus [2]) [mg/kg]	EDmin (Mus musculus [4]) [mg/kg]	EDmin (Mus musculus [5]) [mg/kg]	EDmin (Rattus norvegicus [8]) [mg/kg]	EDmin (Mus musculus [11]) [mg/kg]
Cc1cc2c(s1)Nc1ccccc1N=C2N1CCN(C)CC1 [OLANZAPINE]	> 10000									> 10000	2.5	0.625	1	0.25	2.5
